Assay results as given in the NIST ThermoML archive (doi:10.1021/je500381c).

Test: refractive index (Na D-line) (dimensionless); xn = mol fraction of the nth substance listed
Details: 100 kPa, Liquid, Standard Abbe refractometry

CC12CC3CC(C1)CC(C)(C3)C2 [1,3-dimethyladamantane] + CCCCCCCO
refractive index
Details | x2 = 0 | x2 = 0.1001 | x2 = 0.1997 | x2 = 0.2998 | x2 = 0.3997 | x2 = 0.4997 | x2 = 0.6002 | x2 = 0.7 | x2 = 0.7996 | x2 = 0.8999
293.15 K | 1.4776 | 1.4735 | 1.4696 | 1.4642 | 1.4591 | 1.4541 | 1.4483 | 1.4427 | 1.4365 | 1.4299
298.15 K | 1.4757 | 1.4714 | 1.4678 | 1.4624 | 1.4572 | 1.4519 | 1.4468 | 1.4411 | 1.4351 | 1.4282
303.15 K | 1.4734 | 1.4695 | 1.4654 | 1.4603 | 1.4551 | 1.4495 | 1.4442 | 1.4389 | 1.4333 | 1.4265
313.15 K | 1.4691 | 1.4646 | 1.4608 | 1.4558 | 1.4508 | 1.4457 | 1.4402 | 1.4347 | 1.4288 | 1.4223
323.15 K | 1.4651 | 1.4606 | 1.4567 | 1.4514 | 1.4464 | 1.4411 | 1.4359 | 1.4301 | 1.4244 | 1.4178
333.15 K | 1.461 | 1.4564 | 1.4527 | 1.4473 | 1.4422 | 1.437 | 1.4316 | 1.4262 | 1.4206 | 1.4141

CC12CC3CC(C)(C1)CC(C)(C3)C2 [1,3,5-trimethyladamantane] + OCC1CCCCC1
refractive index
Details | x2 = 0 | x2 = 0.1 | x2 = 0.2001 | x2 = 0.2997 | x2 = 0.4 | x2 = 0.4994 | x2 = 0.5991 | x2 = 0.7 | x2 = 0.801 | x2 = 0.8927
293.15 K | 1.4736 | 1.4727 | 1.4718 | 1.4711 | 1.4703 | 1.4694 | 1.4684 | 1.4673 | 1.4661 | 1.465
298.15 K | 1.4715 | 1.4708 | 1.47 | 1.4691 | 1.4681 | 1.4672 | 1.4663 | 1.4655 | 1.4641 | 1.4631
303.15 K | 1.4695 | 1.4686 | 1.4676 | 1.4669 | 1.4659 | 1.465 | 1.4643 | 1.4632 | 1.4621 | 1.4609
313.15 K | 1.4649 | 1.4641 | 1.4633 | 1.4625 | 1.4618 | 1.4608 | 1.46 | 1.459 | 1.458 | 1.4568
323.15 K | 1.4612 | 1.46 | 1.4589 | 1.4582 | 1.4573 | 1.4565 | 1.4556 | 1.4549 | 1.4539 | 1.4528
333.15 K | 1.4568 | 1.4552 | 1.4545 | 1.4538 | 1.453 | 1.4522 | 1.4513 | 1.4504 | 1.4492 | 1.4486

CCC12CC3CC(CC(C3)C1)C2 [1-ethyladamantane] + OCC1CCCCC1
refractive index
Details | x2 = 0 | x2 = 0.1 | x2 = 0.2002 | x2 = 0.2997 | x2 = 0.3999 | x2 = 0.4998 | x2 = 0.5989 | x2 = 0.7001 | x2 = 0.8023 | x2 = 0.8996
293.15 K | 1.4927 | 1.4903 | 1.4877 | 1.4853 | 1.4828 | 1.4801 | 1.477 | 1.474 | 1.4708 | 1.4673
298.15 K | 1.4906 | 1.4883 | 1.4861 | 1.4835 | 1.4807 | 1.478 | 1.4754 | 1.4721 | 1.4689 | 1.4655
303.15 K | 1.4884 | 1.4861 | 1.4836 | 1.4812 | 1.4783 | 1.4757 | 1.4733 | 1.47 | 1.4668 | 1.4634
313.15 K | 1.4839 | 1.4816 | 1.4791 | 1.4768 | 1.4741 | 1.471 | 1.4687 | 1.4657 | 1.4623 | 1.4593
323.15 K | 1.4802 | 1.4775 | 1.4751 | 1.4725 | 1.4699 | 1.4672 | 1.4645 | 1.4616 | 1.4584 | 1.4553
333.15 K | 1.4759 | 1.4725 | 1.4703 | 1.4678 | 1.4652 | 1.4627 | 1.4599 | 1.4571 | 1.4541 | 1.451
